ChEMBL document CHEMBL1201862, “PubChem BioAssay data set” (2004)
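Grown in 96-well plates, cells were treated for 48 hours with each compound at five concentrations. Insufficient inhibition: endpoint recorded as highest concentration tested. GI50: concentration for 50% inhibition of growth.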 Calls of active or inactive are those of the source. No stated cut-off is given here; in the data, active = GI50 up to about 1.1 µM and inactive = higher.

What was measured:
Experiment in all cases: inhibition of tumour cell growth, NCI panel, 48 h
HOP-62 = system: HOP-62
Malme-3M = system: Malme-3M
M14 = system: M14
OVCAR-8 = system: OVCAR-8
U-251 = system: U-251
SF-295 = system: SF-295
OVCAR-5 = system: OVCAR-5
SNB-75 = system: SNB-75
NCI-H460 = system: NCI-H460
NCI-H226 = system: NCI-H226
HL-60 = system: HL-60
SW-620 = system: SW-620
HCC 2998 = system: HCC 2998
786-0 = system: 786-0
HCT-116 = system: HCT-116
SK-MEL-2 = system: SK-MEL-2
PC-3 = system: PC-3
MCF7 = system: MCF7
Hs-578T = system: Hs-578T
BT-549 = system: BT-549

Measured: GI50

CCOC(=O)C(NC(=O)c1ccc(/N=N/N(C)C)cc1)C(C)C (stereo not drawn)
inactive: HOP-62 > 100 µM | Malme-3M > 100 µM | M14 > 100 µM | OVCAR-8 > 100 µM | U-251 31 µM | SF-295 > 100 µM | OVCAR-5 > 100 µM | SNB-75 > 100 µM | NCI-H460 > 100 µM | NCI-H226 > 100 µM | HL-60 > 100 µM | SW-620 > 100 µM | HCC 2998 > 100 µM | 786-0 > 100 µM | HCT-116 > 100 µM | SK-MEL-2 > 100 µM

COC(=O)C1(Cc2ccccc2)Cc2c(C)ccc(C)c2C1=O (stereo not drawn)
inactive: HOP-62 56.9 µM | Malme-3M 21.4 µM | M14 25.1 µM | OVCAR-8 14.4 µM | U-251 30 µM | SF-295 31.8 µM | PC-3 26.3 µM | OVCAR-5 69.5 µM | SNB-75 17.3 µM | NCI-H460 31.9 µM | NCI-H226 21.1 µM | HL-60 20.2 µM | SW-620 40.6 µM | MCF7 28.7 µM | Hs-578T 5.64 µM | HCC 2998 28 µM | 786-0 37.5 µM | HCT-116 19.8 µM

O=C1c2cc(CCl)sc2C(=O)c2ccsc21
inactive: OVCAR-5 1.85 µM | NCI-H460 1.31 µM | NCI-H226 1.69 µM | HCC 2998 1.67 µM | 786-0 1.53 µM
active: Malme-3M 0.0387 µM | M14 < 0.0187 µM | OVCAR-8 0.215 µM | U-251 0.333 µM | SF-295 0.0966 µM | PC-3 0.254 µM | SNB-75 0.192 µM | HL-60 0.0559 µM | SW-620 0.195 µM | MCF7 0.197 µM | Hs-578T 0.233 µM | HCT-116 0.189 µM | SK-MEL-2 0.153 µM

Cn1cc2ccccc2c1-c1nc(N)nc(F)n1
inactive: HOP-62 > 100 µM | Malme-3M 56.1 µM | M14 > 100 µM | OVCAR-8 > 100 µM | U-251 > 100 µM | SF-295 50.9 µM | OVCAR-5 > 100 µM | SNB-75 47.3 µM | NCI-H460 > 100 µM | NCI-H226 29.5 µM | HL-60 > 100 µM | SW-620 78.3 µM | HCC 2998 > 100 µM | 786-0 > 100 µM | HCT-116 > 100 µM | SK-MEL-2 > 100 µM

CC(C)N1CCCOC(c2ccc([N+](=O)[O-])cc2)O1 (stereo not drawn)
inactive: HOP-62 > 100 µM | Malme-3M > 100 µM | M14 > 100 µM | OVCAR-8 > 100 µM | U-251 > 100 µM | SF-295 > 100 µM | PC-3 > 100 µM | OVCAR-5 > 100 µM | SNB-75 > 100 µM | NCI-H460 > 100 µM | NCI-H226 > 100 µM | SW-620 > 100 µM | MCF7 80.9 µM | BT-549 > 100 µM | HCC 2998 > 100 µM | 786-0 > 100 µM | HCT-116 > 100 µM | SK-MEL-2 > 100 µM

O=C(CCc1nnc2s/c(=C\c3ccc4c(c3)OCO4)c(=O)n12)Nc1cc(Cl)ccc1Cl
inactive: HOP-62 > 100 µM | Malme-3M > 100 µM | M14 > 100 µM | OVCAR-8 > 100 µM | U-251 > 100 µM | SF-295 > 100 µM | OVCAR-5 > 100 µM | SNB-75 > 100 µM | NCI-H460 > 100 µM | NCI-H226 > 100 µM | HL-60 > 55.2 µM | SW-620 > 43.6 µM | HCC 2998 > 100 µM | 786-0 > 100 µM | HCT-116 > 50.9 µM | SK-MEL-2 > 100 µM

CCc1ccccc1NC(=O)C(=O)C(C#N)c1ccccc1Cl (stereo not drawn)
inactive: HOP-62 > 100 µM | Malme-3M > 100 µM | M14 > 100 µM | OVCAR-8 > 100 µM | U-251 > 100 µM | SF-295 > 100 µM | OVCAR-5 > 100 µM | SNB-75 > 100 µM | NCI-H460 16.9 µM | NCI-H226 > 100 µM | HL-60 > 100 µM | SW-620 > 100 µM | HCC 2998 > 100 µM | 786-0 > 100 µM | HCT-116 > 100 µM | SK-MEL-2 > 100 µM

CNC(=O)NCCCCC(NC(=O)OCc1ccccc1)C(=O)OCc1ccccc1 (stereo not drawn)
inactive: HOP-62 8.81 µM | Malme-3M 14.4 µM | M14 16.5 µM | OVCAR-8 29.4 µM | U-251 23.9 µM | SF-295 20.6 µM | OVCAR-5 46 µM | SNB-75 20.2 µM | NCI-H460 31.7 µM | NCI-H226 60.3 µM | HL-60 16.8 µM | SW-620 > 100 µM | HCC 2998 20.3 µM | 786-0 17.5 µM | HCT-116 51.6 µM | SK-MEL-2 22 µM

CCN(CC)c1nnc(CCCCCCCCc2nnc(N(CC)CC)o2)o1
inactive: HOP-62 > 100 µM | Malme-3M > 100 µM | M14 > 100 µM | OVCAR-8 > 100 µM | U-251 > 100 µM | SF-295 > 100 µM | PC-3 > 100 µM | OVCAR-5 > 100 µM | SNB-75 > 100 µM | NCI-H460 > 100 µM | NCI-H226 > 100 µM | HL-60 > 100 µM | SW-620 > 100 µM | MCF7 > 100 µM | BT-549 > 100 µM | 786-0 > 100 µM | HCT-116 > 100 µM | SK-MEL-2 > 100 µM

CC(=O)Nc1c(C)ccc2c1C(=O)c1ccccc1C2=O
inactive: HOP-62 > 100 µM | Malme-3M > 100 µM | M14 > 100 µM | OVCAR-8 82.6 µM | U-251 > 100 µM | SF-295 > 100 µM | OVCAR-5 > 100 µM | SNB-75 45.7 µM | NCI-H460 > 100 µM | NCI-H226 > 100 µM | HL-60 47.2 µM | SW-620 > 100 µM | HCC 2998 > 100 µM | 786-0 > 100 µM | HCT-116 91.8 µM | SK-MEL-2 > 100 µM

CCCCCCCCCCCCCP(=O)(O)NCC(N)=O
inactive: HOP-62 37.8 µM | Malme-3M > 100 µM | M14 29.2 µM | OVCAR-8 71.3 µM | U-251 33.5 µM | SF-295 52 µM | OVCAR-5 > 100 µM | SNB-75 17.4 µM | NCI-H460 > 100 µM | NCI-H226 62.4 µM | HL-60 19.7 µM | SW-620 99.8 µM | HCC 2998 > 100 µM | 786-0 > 100 µM | HCT-116 45.7 µM | SK-MEL-2 53.2 µM

C(=C\c1ccccc1)/Cn1nc(-c2ccccc2)nc1-c1cnccn1
inactive: HOP-62 > 100 µM | M14 > 100 µM | OVCAR-8 > 100 µM | U-251 > 100 µM | SF-295 > 100 µM | PC-3 > 100 µM | OVCAR-5 > 100 µM | SNB-75 18.7 µM | NCI-H460 > 100 µM | HL-60 > 100 µM | SW-620 > 100 µM | MCF7 > 100 µM | BT-549 > 100 µM | HCC 2998 > 100 µM | 786-0 > 100 µM | HCT-116 > 100 µM

COc1ccc2nc(NC(=O)C(=O)C(C#N)c3ccc(CC#N)cc3)sc2c1 (stereo not drawn)
inactive: HOP-62 > 100 µM | Malme-3M > 100 µM | M14 > 100 µM | OVCAR-8 > 100 µM | U-251 > 100 µM | SF-295 > 100 µM | OVCAR-5 > 100 µM | SNB-75 > 100 µM | NCI-H460 > 100 µM | NCI-H226 > 100 µM | HL-60 > 100 µM | SW-620 > 100 µM | HCC 2998 > 100 µM | 786-0 > 100 µM | HCT-116 > 100 µM | SK-MEL-2 > 100 µM

CS(=O)(=O)OCCN(CCOS(C)(=O)=O)c1ccc(/C=N/N=c2/nc[nH]c3nc[nH]c23)cc1
inactive: HOP-62 28.2 µM | Malme-3M 27 µM | M14 17.6 µM | OVCAR-8 20.7 µM | U-251 16.3 µM | SF-295 14.9 µM | OVCAR-5 20.6 µM | SNB-75 14.6 µM | NCI-H460 7.76 µM | NCI-H226 19.3 µM | HL-60 6.04 µM | SW-620 16 µM | HCC 2998 19.4 µM | 786-0 16.3 µM | HCT-116 17.3 µM | SK-MEL-2 20.4 µM

O=C1NC(Nc2ccccc2)=NC(C(F)(F)F)(C(F)(F)F)N1
inactive: HOP-62 53.3 µM | Malme-3M 30.1 µM | M14 21.4 µM | OVCAR-8 40.2 µM | U-251 27.9 µM | SF-295 37 µM | PC-3 20.5 µM | OVCAR-5 42.8 µM | SNB-75 11.5 µM | NCI-H460 32.8 µM | NCI-H226 41.1 µM | HL-60 31.6 µM | SW-620 71.8 µM | MCF7 37.9 µM | Hs-578T 55.3 µM | HCC 2998 46.7 µM | 786-0 39.1 µM | HCT-116 34.6 µM | SK-MEL-2 19.9 µM

NC1=Nc2ccccc2Sc2ccccc21
inactive: HOP-62 > 100 µM | Malme-3M > 100 µM | M14 > 100 µM | OVCAR-8 > 100 µM | U-251 > 100 µM | SF-295 > 100 µM | OVCAR-5 > 100 µM | SNB-75 16.5 µM | NCI-H460 > 100 µM | NCI-H226 24.4 µM | HL-60 > 100 µM | SW-620 > 100 µM | HCC 2998 > 100 µM | 786-0 > 100 µM | HCT-116 35.9 µM | SK-MEL-2 > 100 µM

CCOCN/C(N)=N\C#N
inactive: HOP-62 > 100 µM | Malme-3M > 100 µM | M14 > 100 µM | OVCAR-8 > 100 µM | U-251 > 100 µM | SF-295 > 100 µM | OVCAR-5 > 100 µM | SNB-75 > 100 µM | NCI-H460 > 100 µM | NCI-H226 > 100 µM | HL-60 > 100 µM | SW-620 18.3 µM | HCC 2998 > 100 µM | 786-0 23.9 µM | HCT-116 > 100 µM | SK-MEL-2 > 100 µM
